Patent US20160067211A1, “PHARMACEUTICAL COMPOSITION” (Eberhard Karls Universitaet Tuebingen Medizinische Fakultaet, priority 2013, published 2016)

Key:
[1] = system: all tested cancer cells (Tab. 1); assay: Proliferation of all tested tumor cell lines (Table 1); type: cell-based; settings: 19 tumor cell lines of Tab. 1
Source text: The inventors have tested 19 different tumor cell lines in total, including five melanoma cell lines, two liver cancer cell lines, three breast cancer cell lines, three colon cancer cell lines, two prostate cancer cell lines, two lung cancer cell lines and to renal cancer cell lines.

[2] = system: BLM melanoma cells; assay: Organotypic human epidermal skin reconstructs, BLM; type: cell-based; settings: 100 μM, 40× magnification
Description: FIG. 11: 6-PN and 8-PN reduce proliferation and invasion of BLM and LOXIMVI melanoma cells in human epidermal skin reconstructs and induce little embryo toxicity. (A) BLM melanoma cells and keratinocytes were seeded on top of a collagen matrix populated by fibroblasts. After 16 days a keratinizing stratified epithelium with a rudimentary corium is formed. […] (B) Similar results were obtained for LOXIMVI melanoma cells under the same treatment conditions. Only nests of dead, MIB1 negative LOXIMVI cells were detected after treatment with the PNs. […]
In this assay, keratinocytes and melanoma cells are seeded on top of a collagen matrix populated by fibroblasts. […] Untreated control BLM cells (depicting 70-80% proliferation, determined by MIB1 immunhistochemistry) had formed a large tumor in the epidermal part of the reconstruct and had invaded the corium (FIG. 11A, upper panel). To determine the amount of proliferating cells, the number of MIB1 positive melanoma cells per power field in the epidermal part of the reconstruct at the epidermal-dermal border was counted (40× magnification, n=5 adjacent fields examined). Further, the number of melanoma cells invading the dermal part of the reconstruct was counted in the same high power fields. In reconstructs with untreated BLM cells, 103±15 MIB1 positive cells and 39±13 invasive cells were counted (FIG. 11A, upper panel). […]

[3] = molecular target: P-glycoprotein (Homo sapiens, UniProt P08183); settings: cited from earlier work
Chain of P-glycoprotein (P08183 whole entry): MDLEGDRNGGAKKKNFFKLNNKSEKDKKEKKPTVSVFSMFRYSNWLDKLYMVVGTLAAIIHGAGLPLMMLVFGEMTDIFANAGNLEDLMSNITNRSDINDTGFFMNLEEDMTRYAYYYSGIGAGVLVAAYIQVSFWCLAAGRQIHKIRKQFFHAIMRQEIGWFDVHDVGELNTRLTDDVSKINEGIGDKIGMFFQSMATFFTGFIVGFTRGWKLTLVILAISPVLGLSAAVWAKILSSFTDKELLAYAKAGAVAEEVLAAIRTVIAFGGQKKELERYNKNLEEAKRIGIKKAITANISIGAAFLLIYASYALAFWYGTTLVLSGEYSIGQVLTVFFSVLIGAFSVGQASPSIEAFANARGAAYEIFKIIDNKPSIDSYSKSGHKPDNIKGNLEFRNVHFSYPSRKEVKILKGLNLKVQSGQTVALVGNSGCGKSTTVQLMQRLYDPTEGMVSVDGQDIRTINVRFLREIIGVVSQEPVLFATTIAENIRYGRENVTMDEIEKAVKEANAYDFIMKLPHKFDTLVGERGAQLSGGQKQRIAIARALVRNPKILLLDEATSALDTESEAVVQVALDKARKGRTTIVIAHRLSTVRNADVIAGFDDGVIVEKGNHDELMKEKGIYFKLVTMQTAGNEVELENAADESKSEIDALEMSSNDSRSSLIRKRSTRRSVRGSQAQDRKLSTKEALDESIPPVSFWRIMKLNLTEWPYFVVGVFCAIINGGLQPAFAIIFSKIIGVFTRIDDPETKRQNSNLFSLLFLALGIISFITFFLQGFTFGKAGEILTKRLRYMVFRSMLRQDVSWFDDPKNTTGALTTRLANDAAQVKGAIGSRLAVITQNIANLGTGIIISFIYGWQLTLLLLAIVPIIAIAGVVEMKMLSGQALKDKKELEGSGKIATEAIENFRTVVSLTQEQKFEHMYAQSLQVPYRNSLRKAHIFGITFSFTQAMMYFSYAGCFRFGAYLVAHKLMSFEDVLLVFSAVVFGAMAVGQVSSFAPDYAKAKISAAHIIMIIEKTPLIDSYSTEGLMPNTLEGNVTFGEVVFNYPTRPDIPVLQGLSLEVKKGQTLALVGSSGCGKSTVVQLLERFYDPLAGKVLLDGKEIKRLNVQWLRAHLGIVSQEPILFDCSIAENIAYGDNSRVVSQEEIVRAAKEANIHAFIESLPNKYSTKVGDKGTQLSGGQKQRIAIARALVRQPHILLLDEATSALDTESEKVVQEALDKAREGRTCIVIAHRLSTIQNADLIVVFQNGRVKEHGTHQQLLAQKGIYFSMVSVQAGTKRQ

[4] = system: histon protein H3 acetylation in BLM melanoma cells; assay: Western blot of acetylated histon H3, BLM; type: cell-based, human; settings: 100 μM, 24 hours, vs. DMSO control
Description: FIG. 4: 6-PN and 8-PN induce a hyper acetylation in SK-MEL-28 melanoma cells. Western blot analysis of acetylated histon complex H3 in cellular lysates of BLM and SK-MEL-28 cells treated with 100 μM 6-PN or 8-PN for 1, 2, 4, 12 and 24 h, or with 100 μM SAHA (as reference HDACi) for 24 h. Equal protein loading was verified by vinculin staining (lower rows). At 24 hours (BLM) and 2 hours (SK-MEL-28) after the PN treatment a prominent up-regulation of ac-H3 is detectable. The protein expression levels were estimated performing a densitometric analysis.
(§1) The following antibodies were used: Anti-Vinculin and Anti-Actin (1:5000, Sigma-Aldrich), Anti-Acetyl-Histon H3 (1:5000, Millipore, Billerica, USA), Anti-Caspase-3 (1:1000), Anti-AKT, Anti-pAKT, Anti-ERK, Anti-pERK, […], Anti-p70S6 Kinase, and Anti-pS6 protein (1:1000), all from Cell Signaling, Frankfurt, Germany), Anti-LC3 (1:5000, Sigma-Aldrich).
An incubation of cells with HDACi induces generally a hyperacetylation of histon proteins. Therefore, the acetylation status of the histon protein H3 after treatment with 6-PN or 8-PN was investigated. Corresponding to the HDAC screening results, a direct effect was monitored. […] SAHA was used as control HDACi (at 100 μM, 24 hours treatment).

[5] = system: BLM melanoma cells; assay: PI/Annexin V staining FACS, BLM; type: cell-based, human; settings: 100 μM; for annexin V positive (apoptotic) cells: DMSO control 4.1%; for PI positive (nectrotic) cells: DMSO control 9.1%
Description: (§2) (A) Cell cycle FACS analyses of PI stained BLM and SK-MEL-28 melanoma cells. 100 μM of 8-PN-induced a G2 arrest in both cells. (B) FACS analyses of BLM and SK-MEL-28 melanoma cells treated with 100 μM 6-PN or 8-PN and stained for annexin V/PI; staurosporin was used as control for apoptosis induction and DMSO as vehicle control. […] (C) BLM and SK-MEL-28 melanoma cells were treated with 100 μM of PNs; TSA, SAHA and EMSO were used as controls.
To further analyze the possibility of apoptosis induction, an extensive apoptosis assay was performed on SK-MEL-28 melanoma cells 4 hours after treatment with 100 μM 6-PN or 8-PN (FIG. 9). […] This was verified by FACS cell cycle analyses to screen for a possible increase of the sub-G1 fraction of cells (apoptotic cells) or for the induction of a G2 arrest (inhibition of proliferation). […] To further differentiate between the induction of apoptosis and/or necrosis an PI/Annexin V staining of SK-MEL-28 and BLM cells was performed 4 hours and 24 hours after the treatment with 6-PN or 8-PN; 10 μM staurosporin (6 hours treatment) was used as positive control for the induction of apoptosis; DMSO treatment was used as vehicle control. The cells were then analyzed by FACS.

[6] = system: LC3 in BLM melanoma cells; assay: Western blot LC3 (autophagy), BLM; type: cell-based, human; settings: 100 μM, after 12-24 hours
Description: as §2, §1
Since it has been speculated that the formation of intracytoplasmic vacuoles in pancreatic or breast cancer cells by 6-PN and 8-PN observed in pervious studies might represent an induction of autophagy, this issue was further investigated on a molecular level. BLM and SK-MEL-28 melanoma cells were treated with 100 μM of 6-PN, 8-PN, SAHA or TSA (and with DMSO as control), and the treated cells were lysed for protein extraction after 1 hour, 2 hours, 4 hours, 12 hours and 24 hours. […]

## CC(C)=CCc1c(O)cc(O)c2c1OC(c1ccc(O)cc1)CC2=O (stereo not shown) [8-PN, 5,7-Dihydroxy-2-(4-hydroxy-phenyl)-8-(3-methyl-but-2-enyl)-chroman-4-one]
[1]
  cell proliferation in all tested cancer cells: effectively reduce cell proliferation
[2]; untreated 39±13
  invasive cells per high power field: 6±2
[2]; untreated 103±15
  MIB1 positive cells per high power field: 16±4
[3]
  inhibition of the P-glycoprotein: inhibition
[4]
  histon complex H3 acetylation: massive increase
[5]; 4 hours
  annexin V positive (apoptotic) cells: 1.2%
  PI positive (nectrotic) cells: 27%
[5]; 24 hours
  annexin V positive (apoptotic) cells: 5.9%
  PI positive (nectrotic) cells: 22.4%
[6]
  shift from LC3-I to LC3-II (autophagy): clearly induced the shift
